Test results reported in patent publication US8592451B2, “Reversible nondepolarizing neuromuscular blockade agents and methods for their use” (Cornell University, priority 2009, dated 2013).

What was measured:
[1] = test system: twitch of the extensor digitorum; test: Reversal of neuromuscular blockade by L-cysteine or neostigmine in anesthetized rhesus monkeys; assay type: in vivo, rhesus monkeys (Macaca mulatta)
Experimental: A control dose of 0.15 mg/kg CW 002 was allowed to recover spontaneously to TOF 110-120%. A second dose was given 60 minutes later, followed one minute afterwards by either neostigmine (0.05 mg/kg+atropine 0.05 mg/kg) or L-cysteine (10, 20, 30 or 50 mg/kg). Total duration and 5-95% recovery intervals were compared during spontaneous recovery vs. antagonism by L-cysteine or reversal by neostigmine.
This series of paired comparisons was designed to generate dose-response data comparing spontaneous recovery of high doses of CW 011 (from 4 to 64× ED95) versus immediate antagonism at +1 min by an optimal dose of L-cysteine (50 mg/kg), previously determined during studies of immediate antagonism of CW 002. This experiment was done to explore the limits of chemical antagonism by L-cysteine of these olefinic diester neuromuscular blocking drugs, using CW 011 as a typical example with an intermediate duration of action. Five groups of animals first received a control dose of CW 011 at 4, 8, 16, 32 or 64× ED 95 (0.1 to 1.6 mg/kg). Sixty minutes after spontaneous recovery of the control dose to TOF 110-120%, the same dose was repeated, followed 1 min later by L-cysteine (50 mg/kg). Total duration of action and 5-95% recovery interval were compared during spontaneous recovery and following antagonism by L-cysteine
The reversal of neuromuscular blockade by cysteine (5-50 mg/kg i.v.) was studied. Reversal was tested as follows: full paralysis was induced by injection of a dose of approximately 2-6× ED 95 of the compound in question. After spontaneous recovery of this dose, a second identical dose was given 15-30 min later. Cysteine was then given at +1 min after injection of the neuromuscular blocking drug at a point where no twitch was apparent (“immediate reversal”) or at the beginning of recovery from neuromuscular blockade at two percent twitch height (“classical reversal”). Comparisons were made among compounds with respect to rapidity and ease of cysteine reversal, by comparing 5-95% recovery times, and total durations of action (injection to 95% twitch recovery). Spontaneous recovery was compared with cysteine-accelerated recovery. […]

[2] = L-cysteine adduction kinetics in vitro (HPLC); assay type: physicochemical; conditions: pH 7.4, 37° C.; for NMBA peak area / [NMBA] remaining / ln* = ln (([NMBA]t[L-cysteine]t=0)/([NMBA]t=0[L-cysteine]t)): CW 011 1000 μg/mL + 1.05 equiv. L-cysteine
Experimental: In a second experiment, to evaluate degradation in the presence of L-cysteine, buffered solutions (pH 7.4) of gantacurium, CW 002 or CW 011 were freshly prepared at 37° C. to give experimental concentrations of 1000 μg/mL (CW 002 and CW 011) and 200 μg/mL (gantacurium), after addition to and mixing with a 5% Molar excess of L-cysteine at time=0.
The concentration of neuromuscular blocking agent/parent compound remaining at specified time points after mixing was determined by high performance liquid chromatography. The concentration of blocking agent at each time point was determined from a separately prepared reaction mixture, due to the rapid rate of L-cysteine adduction. The reaction rate constant for the second order reaction of each neuromuscular blockade agent (NMBA) with L-cysteine was derived by plotting the natural log of ([NMBA]t[L-cysteine]t=0/[NMBA]t=0[L-cysteine]t) vs. time.
Concentrations selected were 200, 100 and 50 μg/ml which are approximately proportional to the relative potencies (ED 95) of gantacurium, CW 002 and CW 011 respectively. A degradation (adduction) pathway in the presence of L-cysteine for each of the three compounds was proposed.
The reaction of L-cysteine with CW 002, CW 011 or gantacurium is first order in the case of both the neuromuscular blockade agent (NMBA) and L-cysteine, represented by the rate equation (1). d[Adduct]/dt=−d[NMBA]/dt=ka[NMBA][L-cysteine] (1)
Calculation of the L-cysteine adduction half time requires experimental derivation of the reaction rate constant, ka, for each compound. The initial concentrations of NMBA and L-cysteine are unequal in the experiments conducted for this study, thus integration of equation 1 gives equation 2, where [NMBA]0 is the NMBA concentration at time equals 0 and [NMBA]t is the NMBA concentration at a time point, t.
[formula] A plot of the ln(([NMBA]t [L-cysteine]0)/([NMBA]0 [L-cysteine]t)) versus time (ln* vs. t) gives a line, with slope equal to ka([NMBA]0−[L-cysteine]0). An adduction reaction half time can be calculated by solving for ka to be used in equation 3.
NMBA standard solutions were prepared by a method similar to that used to prepare hydrolysis standards. The standards were prepared at 1000 μg/mL for CW 002 and CW 011 and 200 μg/mL for gantacurium.
Solutions used for determination of NMBA concentration at the reported times for CW 002 and CW 011 were prepared as follows: L-cysteine hydrochloride monohydrate was charged to a volumetric flask in de-ionized water. A 5 mL aliquot of the L-cysteine solution (1.05 equiv. L-cysteine with respect to NMBA) was transferred by volumetric pipette to a flask held at 37.0±0.3° C. CW 002 or CW 011 was then charged to a separate 25 mL volumetric flask and diluted to volume with pH 7.4 phosphate buffer at 37.0° C. The NMBA solution was then immediately transferred to the flask containing L-cysteine to give an initial NMBA concentration of 1000 μg/mL. Solutions used for determination of gantacurium concentration versus time were prepared in a similar manner to give an initial concentration of 200 μg/mL. T=0 was defined as the time of addition of NMBA solution to L-cysteine solution. The times listed in the results table show the point of HPLC sample injection following mixing of L-cysteine and NMBA at time=0 (Table 1, below).
Rate constants were calculated using equation (3) and the slope of the trend line derived from each data set. The strong linear correlation of the data within each set supports the use of second order kinetics for analysis of the cysteine adduction reactions.
Reaction half times were calculated using equation 4 and the experimentally determined rate constants. The initial NMBA concentrations were chosen to reflect the relative potency observed in vivo.

Question: For COc1ccc(C[C@@H]2c3cc(OC)c(OC)cc3CC[N@@+]2(C)CCCOC(=O)/C=C\C(=O)OCCC[N@+]2(C)CCc3cc(OC)c(OC)cc3[C@H]2Cc2cc(OC)c(OC)c(OC)c2)cc1OC [CW 011], which “time to reversal of blockade with cysteine (FIG. 2B)” value ([1]; CW 011, all cysteine concentrations tested (10 mg/kg to 50 mg/kg as worded elsewhere in the source)) is on record?
Answer: The value was “less than 6 minutes”.

Question: What about the “time from cysteine administration to beginning of reversal (FIG. 2B)” value ([1]; CW 011, higher cysteine doses) of the same compound?
Answer: The value was 2 to 3 min.

Question: What about the “time to spontaneous reversal of blockade (FIG. 2)” value ([1]; CW 011, no reversal agent) of the same compound?
Answer: The value was “more than 12 minutes”.

Question: And the “reversibility of neuromuscular blockade by thiol compounds” value ([1]; cysteine (L or D) or glutathione)?
Answer: The value was “reversible”.

Question: What about the “effect of neostigmine given immediately after the blocking drug” value ([1]; immediate reversal) of the same compound?
Answer: The value was “ineffective”.

Question: And the “spontaneous reversal rate (FIG. 2A)” value ([1]; increasing doses of CW 011 (4 to 64× ED95), no reversal agent)?
Answer: Its value is “decreases with increasing CW 011 dose”.

Question: What about the “classical antagonism of neuromuscular blockade by neostigmine” value ([1]; neostigmine given at beginning of spontaneous recovery, e.g. at 2% twitch height) of the same compound?
Answer: The value was “showed antagonism”.

Question: What about the NMBA peak area ([2]; Trial 1, 123 Sec) of the same compound?
Answer: The NMBA peak area was 2587.0 mAU's.

Question: And the “[NMBA] remaining” value ([2]; Trial 1, 123 Sec)?
Answer: Its value is 228 µM.

Question: What about the “ln* = ln (([NMBA]t[L-cysteine]t=0)/([NMBA]t=0[L-cysteine]t))” value (shortened to “ln* = ln”) ([2]; Trial 1, 123 Sec) of the same compound?
Answer: Its value is −0.248.

Question: What about the NMBA peak area ([2]; Trial 2, 132 Sec) of the same compound?
Answer: Its NMBA peak area is 2500.5 mAU's.

Question: And the “[NMBA] remaining” value ([2]; Trial 2, 132 Sec)?
Answer: Its value is 221 µM.

Question: And the “ln* = ln” value ([2]; Trial 2, 132 Sec)?
Answer: The value was −0.256.

Question: And the NMBA peak area ([2]; Trial 3, 143 Sec)?
Answer: The NMBA peak area was 2293.0 mAU's.

Question: What about the “[NMBA] remaining” value ([2]; Trial 3, 143 Sec) of the same compound?
Answer: The value was 202 µM.

Question: What about the “ln* = ln” value ([2]; Trial 3, 143 Sec) of the same compound?
Answer: Its value is −0.284.

Question: What about the NMBA peak area ([2]; Trial 4, 182 Sec) of the same compound?
Answer: The NMBA peak area was 1765.4 mAU's.

Question: And the “[NMBA] remaining” value ([2]; Trial 4, 182 Sec)?
Answer: Its value is 155 µM.

Question: What about the “ln* = ln” value ([2]; Trial 4, 182 Sec) of the same compound?
Answer: Its value is −0.378.

Question: And the “Plot Slope (ln* vs. time)” value ([2]; L-cysteine adduction, data of Table 1)?
Answer: Its value is −0.0023.

Question: And the “ka, second order rate constant of L-cysteine adduction” value [2]?
Answer: Its value is 24.7 M⁻¹ s⁻¹.

Question: And the half-life at 50 μg/ml ([2]; pH 7.4 phosphate buffer with L-cysteine, calculated at [NMBA]0 0.0000493 M (50 μg/ml), read-out: L-cysteine adduction reaction half time t1/2)?
Answer: The half-life at 50 μg/ml was 13.7 min.
